Measurements: patent US20220344599A1, “METAL COMPLEX AND ELECTRON TRANSPORTING MATERIAL COMPRISING SAME” (DYDEN CORPORATION, priority 2019, published 2022)

Test: dissolution test of metal complexes in protic polar solvents
Type: physicochemical
Set-up: key to dissolution test, 7.5 g/L: a case where an undissolved remnant was present was evaluated as “X”; a case where a slight undissolved remnant was present was evaluated as “Δ”; a case of complete dissolution was evaluated as “ο”
Method: The metal complexes obtained in [1] were each dissolved in a protic polar solvent shown in Table 1 to produce a liquid material for constructing the electron transport layer of an organic electroluminescent element.
For example, Metal complex L101-Cs was dissolved in 1-heptanol to prepare alcohol solutions of 7.5 g/L to 15 g/L.
In Table 1, a case where an undissolved remnant was present was evaluated as “X”, a case where a slight undissolved remnant was present was evaluated as “Δ”, and a case of complete dissolution was evaluated as “ο”.

For `Oc1cccc2c1nc(-c1ccccc1)n2-c1cccc(-c2ccc3ccc4cccnc4c3n2)c1` [L101-Cs], the “dissolution test, 7.5 g/L” value (1-Heptanol) was “○”.

In the case of `Oc1cccc2c1nc(-c1ccccc1)n2-c1cccc(-c2ccc3ccc4cccnc4c3n2)c1` [L101-Rb], the “dissolution test, 7.5 g/L” value (1-Heptanol) is reported as “○”.

With `Oc1cccc2c1nc(-c1ccccc1)n2-c1ccc2ccc3cccnc3c2n1` [L102-Cs] the “dissolution test, 7.5 g/L” value (1-Heptanol) was “○”.

In the case of `Oc1ccc(-c2ccc3ccc4cccnc4c3n2)c2c1nc(-c1ccccc1)n2-c1ccccc1` [L103-Cs], the “dissolution test, 7.5 g/L” value (1-Heptanol) is reported as “○”.

In the case of `Oc1cccc2oc3cc(-c4ccc5ccc6cccnc6c5n4)cnc3c12` [L301-Cs], the “dissolution test, 5 g/L” value (1-Heptanol, 5 g/L) is reported as “○”, the “dissolution test, 7.5 g/L” value (1-Heptanol) is reported as “Δ” and the “dissolution test, 7.5 g/L” value (2-Methoxyethanol) is reported as “○”. The “dissolution test, 15 g/L” value (2-Methoxyethanol) was “○”.

In the case of `O=P(c1ccccc1)(c1ccc2ccc3cccnc3c2n1)c1ccc(O)c2c1oc1cccnc12` (stereo not drawn) [L302-Cs], the “dissolution test, 7.5 g/L” value (1-Heptanol) is reported as “○” and the “dissolution test, 15 g/L” value (1-Heptanol) is reported as “○”.

With `O=P(c1ccccc1)(c1ccc2ccc3cccnc3c2n1)c1ccc(O)c2c1oc1cccnc12` (stereo not drawn) [L302-Li] the “dissolution test, 7.5 g/L” value (1-Heptanol) was “○” and the “dissolution test, 15 g/L” value (1-Heptanol) was “○”.

With `O=P(c1ccccc1)(c1ccc2ccc3cccnc3c2n1)c1ccc(O)c2c1oc1cccnc12` (stereo not drawn) [L302-Rb] the “dissolution test, 7.5 g/L” value (1-Heptanol) was “○” and the “dissolution test, 15 g/L” value (1-Heptanol) was “○”.

With `O=P(c1ccccc1)(c1ccccc1)c1ccc2ccc3ccc(-c4ccc(O)c5c4oc4cccnc45)nc3c2n1` [L303-Cs] the “dissolution test, 7.5 g/L” value (1-Heptanol) was “○”.
